# Assay results taken from patent EP0233461B2, “4,5,6-Substituted-2-pyrimidinamines” (AMERICAN CYANAMID COMPANY, priority 1986, dated 1987).
# Counter-ions that a name gives are not always drawn.
# Tested on: human basophils
# Test: Inhibition of histamine release from immunologically stimulated human basophils
# Type: cell-based
# Conditions: Homo sapiens, concentration causing 50% inhibition of histamine release, by linear regression; active if IC50 ≦ 48 µM
# How it was run: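 Leukocytes from sedimented human blood, washed in Tris-A and resuspended in Tris-ACM, were challenged with anti-IgE or antigen, with or without compound, for 60 min at 37 °C. Released histamine was measured fluorometrically after OPT derivatization and expressed as percent of total (perchloric acid lysate), corrected for spontaneous release.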
row,Compound,IC50 [nM]
1,"Cc1cc(C)cc(Nc2nccc(-c3ccccn3)n2)c1 [N-(3,5-Dimethylphenyl)-4-(2-pyridinyl)-2-pyrimidinamine, sulfate]",600

# Same assay, conditions: Homo sapiens, concentration causing 50% inhibition of histamine release, by linear regression; active if IC50 ≦ 48 µM; read-out: IC50
row,IC50 [nM],Compound
1,1200,CC(=O)Nc1ccc(Nc2nccc(-c3ccncc3)n2)cc1C [N-[2-Methyl-4-[[4-(4-pyridinyl)-2-pyrimidinyl]amino]phenyl]acetamide]
2,10600,CCc1cccc(Nc2nccc(-c3ccncc3)n2)c1 [N-(3-Ethylphenyl)-4-(4-pyridinyl)-2-pyrimidinamine]
3,4600,CC(C)N(CCOc1ccc(Nc2nccc(-c3cccnc3)n2)cc1)C(C)C [N-[4-[2-[bis(1-Methylethyl)amino]ethoxy]phenyl]-4-(3-pyridinyl)-2-pyrimidinamine]
4,700,Cc1cccc(Nc2nccc(-c3ccccn3)n2)c1 [N-(3-Methylphenyl)-4-(2-pyridinyl)-2-pyrimidinamine]
5,1100,"CCN(CC)c1ccc(Nc2nccc(-c3ccncc3)n2)cc1 [N,N-Diethyl-N'-[4-(4-pyridinyl)-2-pyrimidinyl]-1,4-benzenediamine]"
6,24000,"Cc1ccc(Nc2nccc(-c3ccncc3)n2)c(C)c1 [N-(2,4-Dimethylphenyl)-4-(4-pyridinyl)-2-pyrimidinamine]"
7,1700,"CN(C)c1cccc(Nc2nccc(-c3cccnc3)n2)c1 [N,N-Dimethyl-N'-[4-(3-pyridinyl)-2-pyrimidinyl]-1,3-benzenediamine]"
8,300,CC(=O)Nc1cccc(Nc2nccc(-c3ccccn3)n2)c1 [N-[3-[[4-(2-Pyridinyl)-2-pyrimidinyl]amino]-phenyl]acetamide]
9,400,CC(NC=O)c1ccc(Nc2nccc(-c3cccnc3)n2)cc1 (centres unmarked) [N-[1-[4-[[4-(3-Pyridinyl)-2-pyrimidinyl]amino]phenyl]ethyl]formamide]
10,3500,Cc1cccc(Nc2nccc(-c3ccco3)n2)c1 [4-(2-Furanyl)-N-(3-methylphenyl)-2-pyrimidinamine]
11,7600,O=C(O)c1ccc(Nc2nccc(-c3cccnc3)n2)cc1 [4-[[4-(3-Pyridinyl)-2-pyrimidinyl]amino]benzoic acid]
12,13300,Fc1ccc(Nc2nccc(-c3ccco3)n2)cc1 [N-(4-Fluorophenyl)-4-(2-furanyl)-2-pyrimidinamine]
13,300,CC(=O)Nc1ccc(Nc2nccc(-c3ccc(C)s3)n2)cc1 [N-[4-[[4-(5-Methyl-2-thienyl)-2-pyrimidinyl]amino]phenyl]acetamide]
14,900,COc1cccc(Nc2nccc(-c3cccs3)n2)c1 [N-(3-Methoxyphenyl)-4-(2-thienyl)-2-pyrimidinamine]
15,100,c1cncc(-c2ccnc(Nc3cccc(-n4ccnc4)c3)n2)c1 [N-[3-(1H-Imidazol-1-yl)phenyl]-4-(3-pyridinyl)-2-pyrimidinamine]
16,1000,"Nc1cccc(Nc2nccc(-c3ccncc3)n2)c1 [N-[4-(4-Pyridinyl)-2-pyrimidinyl]-1,3-benzenediamine]"
17,3800,Cc1cccc(Nc2nccc(-c3ccsc3)n2)c1 [N-(3-Methylphenyl)-4-(3-thienyl)-2-pyrimidinamine]
18,400,"Nc1cccc(Nc2nccc(-c3cccnc3)n2)c1 [N-[4-(3-Pyridinyl)-2-pyrimidinyl]-1,3-benzenediamine, dihydrochloride]"

row,IC50 [nM],Compound
1,< 48000,CCc1ccc(Nc2nccc(-c3cccn3C)n2)cc1 [N-(4-Ethylphenyl)-4-(1-methyl-1H-pyrrol-2-yl)-2-pyrimidinamine]
2,1000,"Nc1ccc(Nc2nccc(-c3ccccn3)n2)cc1 [N-[4-(2-Pyridinyl)-2-pyrimidinyl]-1,4-benzenediamine, dihydrochloride]"
3,1800,CN1CCN(c2ccc(Nc3nccc(-c4ccco4)n3)cc2)CC1 [4-(2-Furanyl)-N-[4-(4-methyl-1-piperazinyl)phenyl]-2-pyrimidin-amine]
4,4500,NS(=O)(=O)c1ccc(Nc2nccc(-c3ccccn3)n2)cc1 [4-[[4-(2-Pyridinyl)-2-pyrimidinyl]amino]-benzenesulfonamide]
5,9100,"CN(C)CCOc1ccc(N(CCN(C)C)c2nccc(-c3ccncc3)n2)cc1 [N-[4-[2-(Dimethylamino)ethoxy]phenyl]-N',N'-dimethyl-N-[4-(4-pyridinyl)-2-pyrimidinyl]-1,2-ethanediamine]"
6,< 24000,CN1CCN(c2ccc(Nc3nccc(-c4cccs4)n3)cc2)CC1 [N-[4-(4-Methyl-1-piperazinyl)phenyl]-4-(2-thienyl)-2-pyrimidinamine]
7,47100,"Cc1ccc(C)c(Nc2nccc(-c3ccncc3)n2)c1 [N-(2,5-Dimethylphenyl)-4-(4-pyridinyl)-2-pyrimidinamine]"
8,4100,CC(=O)c1cccc(Nc2nccc(-c3cccnc3)n2)c1 [1-[3-[[4-(3-Pyridinyl)-2-pyrimidinyl]amino]-phenyl]ethanone]
9,3100,Clc1cccc(Nc2nccc(-c3ccncc3)n2)c1 [N-(3-Chlorophenyl)-4-(4-pyridinyl)-2-pyrimidinamine]
10,4900,"Cc1cc(-c2ccnc(Nc3ccc(N(C)C)cc3)n2)c(C)o1 [N'-[4-(2,5-Dimethyl-3-furanyl)-2-pyrimidinyl]-N,N-dimethyl-1,4-benzenediamine]"
11,200,NS(=O)(=O)c1cccc(Nc2nccc(-c3cccnc3)n2)c1 [3-[[4-(3-Pyridinyl)-2-pyrimidinyl]amino]benzenesulfonamide]
12,9400,Cc1cccc(Nc2nccc(-c3cccn3C)n2)c1 [N-(3-Methylphenyl)-4-(1-methyl-1H-pyrrol-2-yl)-2-pyrimidinamine]
13,3000,c1ccc(Nc2nccc(-c3ccnc4ccccc34)n2)cc1 [N-Phenyl-4-(4-quinolinyl)-2-pyrimi-dinamine]
14,6200,"CCN(CC)c1ccc(Nc2nccc(-c3cc4ccccc4o3)n2)cc1 [N'-[4-(2-Benzofuranyl)-2-pyrimidinyl]-N,N-diethyl-1,4-benzenediamine]"
15,1300,c1cncc(-c2ccnc(Nc3ccc(-n4ccnc4)cc3)n2)c1 [N-[4-(1H-Imidazol-1-yl)phenyl]-4-(3-pyridinyl)-2-pyrimidinamine]
16,3900,COc1ccc(Nc2nccc(-c3cccs3)n2)cc1 [N-(4-Methoxyphenyl)-4-(2-thienyl)-2-pyrimidinamine]
17,2400,"CN(C)c1cccc(Nc2nccc(-c3cccs3)n2)c1 [N,N-Dimethyl-N'-[4-(2-thienyl)-2-pyrimidinyl]-1,3-benzenediamine]"

# Same assay, conditions: concentration causing 50% inhibition of histamine release, by linear regression; active if IC50 ≦ 48 µM; read-out: IC50
row,Compound,IC50 [nM]
1,"Cc1cc(C)cc(Nc2nccc(-c3ccccn3)n2)c1 [N-(3,5-Dimethylphenyl)-4-(2-pyridinyl)-2-pyrimidinamine]",1000
2,"c1ccc(Nc2nccc(-c3ccncc3)n2)cc1 [N-Phenyl-4-(4-pyridinyl)-2-pyrimidinamine, compound with 2-h] [N-Phenyl-4-(4-pyridinyl)-2-pyrimidinamine, compound with 2-hydroxy-1,2,3-propanetricarboxylate (2:1)]",3500
3,"Cc1cccc(Nc2nccc(-c3ccco3)n2)c1 [4-(2-Furanyl)-N-[3-(methylphenyl)]-2-pyrimidinamine, sulfate]",3000

# Same assay, conditions: concentration causing 50% inhibition of histamine release, by linear regression; active if IC50 ≦ 48 µM; sulfate
row,Compound,IC50 [nM]
1,"Cc1cccc(Nc2nccc(-c3cccs3)n2)c1 [N-(3-Methylphenyl)-4-(2-thienyl)-2-pyrimidinamine, sulfate]",3000
2,"FC(F)(F)c1cccc(Nc2nccc(-c3ccncc3)n2)c1 [4-(4-Pyridinyl)-N-[3-(trifluoromethyl)phenyl]-2-pyrimidinamine, sulfate]",< 48000
